Tests used:
BIR3 domain of XIAP = target: T1, BIR3 domain of XIAP (Homo sapiens, UniProt P98170); experiment: TR-FRET assay for BIR3 (inhibition of binding of XIAP BIR3 domain to SMAC-derived Peptide A); conditions: 6x Histidine-tagged BIR3 domain (amino acids 241-356 of XIAP) 10 nM, Peptide A 20 nM
T1 construct: BIR3 domain, corresponding to amino acids 241-356 of XIAP
Method in brief: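 His6-tagged XIAP BIR3 (aa 241-356, 10 nM) was mixed with 20 nM biotinylated SMAC-derived peptide in 50 mM Tris-Cl pH 7.5, 100 mM NaCl, 1 mM DTT, 0.1 mg/mL BSA and incubated 45 min at 37 °C. Eu-streptavidin (1.5 nM) and APC anti-His (15 nM) were added, with TR-FRET read 1 h later at RT. IC50 came from % inhibition over 10 serial concentrations.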

BIR2 domain of XIAP = target: T2, BIR2 domain of XIAP (Homo sapiens, UniProt P98170, C202A/C213G); experiment: TR-FRET assay for BIR2 (inhibition of binding of XIAP BIR2 domain to SMAC-derived Peptide A); conditions: 6x Histidine-tagged BIR2 domain (amino acids 124-240 of XIAP) 10 nM, Peptide A 20 nM
T2 construct: 6× Histidine-tagged BIR2 domain, corresponding to amino acids 124-240 of XIAP
Method in brief: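 Inhibition of binding of the XIAP BIR2 domain (C202A/C213G) to biotinylated SMAC-derived Peptide A was measured. TR-FRET signal was read after 1 h at room temperature.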

T1 sequence (P98170 with tags, fused parts or gaps): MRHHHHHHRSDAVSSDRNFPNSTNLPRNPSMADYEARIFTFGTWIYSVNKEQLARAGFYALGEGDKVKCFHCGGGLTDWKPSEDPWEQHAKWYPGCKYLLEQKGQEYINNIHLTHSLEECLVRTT
T2 sequence (P98170 with tags, fused parts or gaps C202A/C213G): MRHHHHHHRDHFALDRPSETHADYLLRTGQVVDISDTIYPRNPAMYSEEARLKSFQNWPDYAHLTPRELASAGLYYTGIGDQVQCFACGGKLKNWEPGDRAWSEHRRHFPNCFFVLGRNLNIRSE

| IC50 (BIR3 domain of XIAP) [nM] | IC50 (BIR2 domain of XIAP) [nM] | Compound |
| --- | --- | --- |
| > 54800 | 52.8 | [2H]C([2H])([2H])N[C@@H](CC)C(=O)N[C@H](C(=O)N1c2ncccc2C[C@H]1C(=O)Nc1ccccc1)C1CCCCC1 [Example 83, 1-[(S)-2-Cyclohexyl-2-((S)-2-(d3-methyl)amino-butyrylamino)-acetyl]-2,3-dihydro-1H-pyrrolo[2,3-b]pyridine-2-carboxylic acid phenylamide] |
| > 54800 | 69.1 | CC[C@H](NC)C(=O)N[C@H](C(=O)N1c2ncccc2C[C@H]1C(=O)Nc1ccccc1)C(C)C [Example 85, (S)-1-[(S)-3-Methyl-2-((S)-2-methylamino-butyrylamino)-butyryl]-2,3-dihydro-1H-pyrrolo[2,3-b]pyridine-2-carboxylic acid phenylamide] |
| > 54800 | 65.6 | [2H]C([2H])([2H])N[C@@H](CC)C(=O)N[C@H](C(=O)N1c2ncccc2C[C@H]1C(=O)Nc1ccccc1)C(C)C [Example 86, (S)-1-[(S)-3-Methyl-2-((S)-2-(d3-methyl)amino-butyrylamino)-butyryl]-2,3-dihydro-1H-pyrrolo[2,3-b]pyridine-2-carboxylic acid phenylamide] |
| > 54800 | 234 | CCN[C@@H](C)C(=O)N[C@H](C(=O)N1c2ncccc2C[C@H]1C(=O)Nc1ccccc1)C(C)C [Example 87, (S)-1-[(S)-2-((S)-2-Ethylamino-propionylamino)-3-methyl-butyryl]-2,3-dihydro-1H-pyrrolo[2,3-b]pyridine-2-carboxylic acid phenylamide] |
| > 54800 | 211 | CCN[C@@H](CC)C(=O)N[C@H](C(=O)N1c2ncccc2C[C@H]1C(=O)Nc1ccccc1)C(C)C [Example 88, (S)-1-[(S)-2-((S)-2-Ethylamino-butyrylamino)-3-methyl-butyryl]-2,3-dihydro-1H-pyrrolo[2,3-b]pyridine-2-carboxylic acid phenylamide] |
| > 54800 | 266 | CC(C)[C@H](NC(=O)[C@H](C)NCCO)C(=O)N1c2ncccc2C[C@H]1C(=O)Nc1ccccc1 [Example 89, (S)-1-{(S)-2-[(S)-2-(2-Hydroxy-ethylamino)-propionylamino]-3-methyl-butyryl}-2,3-dihydro-1H-pyrrolo[2,3-b]pyridine-2-carboxylic acid phenylamide] |
| > 54800 | 1610 | CC[C@H](NCCO)C(=O)N[C@H](C(=O)N1c2ncccc2C[C@H]1C(=O)Nc1ccccc1)C(C)C [Example 90, (S)-1-{(S)-2-[(S)-2-(2-Hydroxy-ethylamino)-butyrylamino]-3-methyl-butyryl}-2,3-dihydro-1H-pyrrolo[2,3-b]pyridine-2-carboxylic acid phenylamide] |
| > 54800 | 155 | C[C@H](NCCO)C(=O)N[C@H](C(=O)N1c2ncccc2C[C@H]1C(=O)Nc1ccccc1)C1CCCCC1 [Example 91, (S)-1-{(S)-2-Cyclohexyl-2-[(S)-2-(2-hydroxy-ethylamino)-propionylamino]-acetyl}-2,3-dihydro-1H-pyrrolo[2,3-b]pyridine-2-carboxylic acid phenylamide] |
| > 54800 | 2570 | CC(C)[C@H](NC(=O)[C@H](C)NCCS(C)(=O)=O)C(=O)N1c2ncccc2C[C@H]1C(=O)Nc1c(F)cccc1F [Example 92, (S)-1-{(S)-2-[(S)-2-(2-Methanesulfonyl-ethylamino)-propionylamino]-3-methyl-butyryl}-2,3-dihydro-1H-pyrrolo[2,3-b]pyridine-2-carboxylic acid (2,6-difluoro-phenyl)-amide] |
| > 54800 | 9.79 | CN[C@@H](C)C(=O)N[C@H](C(=O)N1c2ncccc2C[C@H]1C(=O)Nc1c(F)cccc1F)C1CCOCC1 [Example 94, (S)-1-[(S)-2-((S)-2-Methylamino-propionylamino)-2-(tetrahydro-pyran-4-yl)-acetyl]-2,3-dihydro-1H-pyrrolo[2,3-b]pyridine-2-carboxylic acid (2,6-difluoro-phenyl)-amide] |
| > 54800 | 607 | CN[C@@H](C)C(=O)N[C@H](C(=O)N1c2ncccc2C[C@@H]1C(=O)Nc1c(F)cccc1F)C1CCOCC1 [Example 95, (R)-1-[(S)-2-((S)-2-Methylamino-propionylamino)-2-(tetrahydro-pyran-4-yl)-acetyl]-2,3-dihydro-1H-pyrrolo[2,3-b]pyridine-2-carboxylic acid (2,6-difluoro-phenyl)-amide] |
| > 54800 | 108 | CN[C@@H](C)C(=O)N[C@@H](CCS(C)(=O)=O)C(=O)N1c2ncccc2C[C@H]1C(=O)Nc1ccccc1 [Example 96, 1-[(S)-4-Methanesulfonyl-2-((S)-2-methylamino-propionylamino)-butyryl]-2,3-dihydro-1H-pyrrolo[2,3-b]pyridine-2-carboxylic acid phenylamide] |
| > 54800 | 3060 | CN[C@@H](C)C(=O)N[C@@H](CCS(C)(=O)=O)C(=O)N1c2ncccc2C[C@@H]1C(=O)Nc1ccccc1 [Example 97, 1-[(S)-4-Methanesulfonyl-2-((S)-2-methylamino-propionylamino)-butyryl]-2,3-dihydro-1H-pyrrolo[2,3-b]pyridine-2-carboxylic acid phenylamide] |
| > 54800 | 17 | CN[C@@H](C)C(=O)N[C@H](C(=O)N1c2ncccc2C(C)C1C(=O)Nc1c(F)cccc1F)C(C)C (stereo partly drawn) [Example 98, 3-Methyl-1-[(S)-3-methyl-2-((S)-2-methylamino-propionylamino)-butyryl]-2,3-dihydro-1H-pyrrolo[2,3-b]pyridine-2-carboxylic acid (2,6-difluoro-phenyl)-amide] |
| > 54800 | 11.6 | CN[C@@H](C)C(=O)N[C@H](C(=O)N1c2ncccc2C[C@H]1C(=O)Nc1c(C)cccc1F)C1CCOCC1 [Example 99, (S)-1-[(S)-2-((S)-2-Methylamino-propionylamino)-2-(tetrahydro-pyran-4-yl)-acetyl]-2,3-dihydro-1H-pyrrolo[2,3-b]pyridine-2-carboxylic acid (2-fluoro-6-methyl-phenyl)-amide] |

From patent US9309248B2, “Azaindolines” (Hoffmann-La Roche Inc., priority 2012, dated 2016)
